In patent US9056840B2, “Coelenterazine analogues and coelenteramide analogues” (JNC Corporation, priority 2010, dated 2015):

Legend:
Type in all cases: physicochemical
apoaequorin [1] = target: T1, apoaequorin (Aequorea victoria, UniProt P07164); assay: Fluorescence spectra of semi-synthetic BFP (coelenteramide analogue + apoaequorin, CaCl2); details: 10 mM CaCl2 buffer, excitation 337 nm
T1 construct: purchased Chisso Corporation
Description: Semi-synthetic gFP was prepared from recombinant apoaequorin and coelenteramide analogues as follows. In 1 ml of 50 mM Tris-HC 1 (pH 7.6) containing 10 mM CaCl2 and 1 mM DTT, apoaequorin (0.2 mg) was mixed with 8 μl of a coelenteramide analogue (1 μg/μl in anhydrous methanol). The mixture was allowed to stand at 4° C. for 16 hours to prepare semi-synthetic BFP-like protein (hereinafter sometimes simply referred to as “semi-synthetic BFP”).
(§1) The fluorescence spectra were determined as follows. For coelenteramide analogue alone, the fluorescence was measured according to the procedures for semi-synthetic gFP and semi-synthetic BFP described in EXAMPLES 11 and 12, except for in the absence of apoaequorin, using 1 ml of 50 mM Tris-HCl (pH 7.6) containing 10 mM EDTA and 1 mM DTT or 1 ml of 50 mM Tris-HCl (pH 7.6) containing 10 mM CaCl2 and 1 mM DTT, in the final concentration of coelenteramide analogue adjusted to 8 μg/ml. The fluorescence spectra were measured at 25° C. in a quartz cell (10 mm light path length) using a Jasco FP-6500 spectrofluorometer (excitation wavelength: 337 nm, emission/excitation bandwidth: 3 nm; response: 0.5 sec, scan speed, 1000 nm/min).

apoaequorin [2] = target: T1, apoaequorin; assay: Fluorescence spectra of semi-synthetic gFP (coelenteramide analogue + apoaequorin, EDTA); details: 10 mM EDTA buffer, excitation 337 nm
Description: Semi-synthetic gFP was prepared from recombinant apoaequorin and coelenteramide analogues as follows. In 1 ml of 50 mM Tris-HC 1 (pH 7.6) containing 10 mM EDTA and 1 mM DTT, apoaequorin (0.2 mg) was mixed with 8 μl of a coelenteramide analogue (1 μg/μl in anhydrous methanol). The mixture was allowed to stand 4° C. for 16 hours to prepare semi-synthetic gFP-like protein (hereinafter sometimes simply referred to as “semi-synthetic gFP”).
as §1

[3] = Fluorescence spectra of coelenteramide analogue alone (absence of apoaequorin); details: analogue alone 8 μg/ml; for Coelenteramide (Buffer containing CaCl2) Fluorescence intensity (rlu) / Coelenteramide (Buffer containing CaCl2) Maximum fluorescence wavelength λmax (nm): 10 mM CaCl2 buffer pH 7.6, excitation 337 nm; for Coelenteramide (EDTA-containing buffer) Fluorescence intensity (rlu) / Coelenteramide (EDTA-containing buffer) Maximum fluorescence wavelength λmax (nm): 10 mM EDTA buffer pH 7.6, excitation 337 nm
Description: as §1

T1 sequence (P07164 other isoform, or with tags, fused parts or gaps with the stated changes): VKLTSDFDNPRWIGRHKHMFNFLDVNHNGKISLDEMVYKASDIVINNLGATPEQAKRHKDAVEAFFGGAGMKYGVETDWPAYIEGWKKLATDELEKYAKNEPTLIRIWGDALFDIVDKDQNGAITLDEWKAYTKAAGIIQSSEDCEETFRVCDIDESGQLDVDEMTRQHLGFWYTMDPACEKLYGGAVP

O=C(Cc1ccc(O)cc1)Nc1ncc(-c2ccc(O)cc2)nc1-c1cccs1 [Compound 4f, 2-(4-Hydroxyphenyl)-N-[5-(4-hydroxyphenyl)-3-(thiophen-2-yl)pyrazin-2-yl]acetamide]
Fluorescence intensity (apoaequorin [1]): 96.4 rlu
Semi-synthetic BFP (Buffer containing CaCl2) Maximum fluorescence wavelength λmax (nm) (apoaequorin [1]): 527.0 nm
Semi-synthetic gFP (EDTA-containing buffer) Fluorescence intensity (rlu) (apoaequorin [2]): 70.5 rlu
Semi-synthetic gFP (EDTA-containing buffer) Maximum fluorescence wavelength λmax (nm) (apoaequorin [2]): 536.5 nm
Coelenteramide (Buffer containing CaCl2) Fluorescence intensity (rlu) [3]: 2.2 rlu
Coelenteramide (Buffer containing CaCl2) Maximum fluorescence wavelength λmax (nm) [3]: 447.0 nm
Coelenteramide (EDTA-containing buffer) Fluorescence intensity (rlu) [3]: 2.3 rlu
Coelenteramide (EDTA-containing buffer) Maximum fluorescence wavelength λmax (nm) [3]: 448.5 nm

O=C(Cc1ccc(O)cc1)Nc1ncc(-c2ccc(O)cc2)nc1-c1ccsc1 [Compound 4g, 2-(4-Hydroxyphenyl)-N-[5-(4-hydroxyphenyl)-3-(thiophen-3-yl)pyrazin-2-yl]acetamide]
Fluorescence intensity (apoaequorin [1]): 195.7 rlu
Semi-synthetic BFP (Buffer containing CaCl2) Maximum fluorescence wavelength λmax (nm) (apoaequorin [1]): 501.5 nm
Semi-synthetic gFP (EDTA-containing buffer) Fluorescence intensity (rlu) (apoaequorin [2]): 108.5 rlu
Semi-synthetic gFP (EDTA-containing buffer) Maximum fluorescence wavelength λmax (nm) (apoaequorin [2]): 512.5 nm
Coelenteramide (Buffer containing CaCl2) Fluorescence intensity (rlu) [3]: 6.1 rlu
Coelenteramide (Buffer containing CaCl2) Maximum fluorescence wavelength λmax (nm) [3]: 470.5 nm
Coelenteramide (EDTA-containing buffer) Fluorescence intensity (rlu) [3]: 5.5 rlu
Coelenteramide (EDTA-containing buffer) Maximum fluorescence wavelength λmax (nm) [3]: 473.0 nm

O=C(Cc1ccc(O)cc1)Nc1ncc(-c2ccc(O)cc2)nc1-c1csc2ccccc12 [Compound 4i, N-[3-(Benzo[b]thiophen-3-yl)-5-(4-hydroxyphenyl)pyrazin-2-yl]-2-(4-hydroxyphenyl) acetamide]
Fluorescence intensity (apoaequorin [1]): 80.0 rlu
Semi-synthetic BFP (Buffer containing CaCl2) Maximum fluorescence wavelength λmax (nm) (apoaequorin [1]): 494.0 nm
Semi-synthetic gFP (EDTA-containing buffer) Fluorescence intensity (rlu) (apoaequorin [2]): 106.5 rlu
Semi-synthetic gFP (EDTA-containing buffer) Maximum fluorescence wavelength λmax (nm) (apoaequorin [2]): 512.5 nm
Coelenteramide (Buffer containing CaCl2) Fluorescence intensity (rlu) [3]: 11.8 rlu
Coelenteramide (Buffer containing CaCl2) Maximum fluorescence wavelength λmax (nm) [3]: 468.0 nm
Coelenteramide (EDTA-containing buffer) Fluorescence intensity (rlu) [3]: 12.1 rlu
Coelenteramide (EDTA-containing buffer) Maximum fluorescence wavelength λmax (nm) [3]: 471.5 nm

O=C(Cc1ccc(O)cc1)Nc1ncc(-c2ccc(O)cc2)nc1-c1ccc(O)cc1 [Compound 4j, N-[3,5-Bis(4-hydroxyphenyl)pyrazin-2-yl]-2-(4-hydroxyphenyl)acetamide]
Fluorescence intensity (apoaequorin [1]): 100.5 rlu
Semi-synthetic BFP (Buffer containing CaCl2) Maximum fluorescence wavelength λmax (nm) (apoaequorin [1]): 489.0 nm
Semi-synthetic gFP (EDTA-containing buffer) Fluorescence intensity (rlu) (apoaequorin [2]): 69.7 rlu
Semi-synthetic gFP (EDTA-containing buffer) Maximum fluorescence wavelength λmax (nm) (apoaequorin [2]): 492.5 nm
Coelenteramide (Buffer containing CaCl2) Fluorescence intensity (rlu) [3]: 22.4 rlu
Coelenteramide (Buffer containing CaCl2) Maximum fluorescence wavelength λmax (nm) [3]: 481.0 nm
Coelenteramide (EDTA-containing buffer) Fluorescence intensity (rlu) [3]: 22.5 rlu
Coelenteramide (EDTA-containing buffer) Maximum fluorescence wavelength λmax (nm) [3]: 482.5 nm

O=C(Cc1ccc(O)cc1)Nc1ncc(-c2ccc(O)cc2)nc1-c1cc2sccc2s1 [Compound 4k, 2-(4-Hydroxyphenyl)-N-[5-(4-hydroxyphenyl)-3-(thieno[3,2-b]thiophen-2-yl)pyrazin-2-yl]acetamide]
Fluorescence intensity (apoaequorin [1]): 148.2 rlu
Semi-synthetic BFP (Buffer containing CaCl2) Maximum fluorescence wavelength λmax (nm) (apoaequorin [1]): 538.5 nm
Semi-synthetic gFP (EDTA-containing buffer) Fluorescence intensity (rlu) (apoaequorin [2]): 139.9 rlu
Semi-synthetic gFP (EDTA-containing buffer) Maximum fluorescence wavelength λmax (nm) (apoaequorin [2]): 532.0 nm
Coelenteramide (Buffer containing CaCl2) Fluorescence intensity (rlu) [3]: 9.7 rlu
Coelenteramide (Buffer containing CaCl2) Maximum fluorescence wavelength λmax (nm) [3]: 491.0 nm
Coelenteramide (EDTA-containing buffer) Fluorescence intensity (rlu) [3]: 10.3 rlu
Coelenteramide (EDTA-containing buffer) Maximum fluorescence wavelength λmax (nm) [3]: 487.5 nm

O=C(Cc1ccc(O)cc1)Nc1ncc(-c2ccc(O)cc2)nc1-c1cc2sc3ccsc3c2s1 [Compound 4l, 2-(4-Hydroxyphenyl)-N-[5-(4-hydroxyphenyl)-3-(thieno[3,2-b:2′,3′-d]thiophen-2-yl)pyrazin-2-yl]acetamide]
Fluorescence intensity (apoaequorin [1]): 63.5 rlu
Semi-synthetic BFP (Buffer containing CaCl2) Maximum fluorescence wavelength λmax (nm) (apoaequorin [1]): 468.0 nm
Semi-synthetic gFP (EDTA-containing buffer) Fluorescence intensity (rlu) (apoaequorin [2]): 140.5 rlu
Semi-synthetic gFP (EDTA-containing buffer) Maximum fluorescence wavelength λmax (nm) (apoaequorin [2]): 524.5 nm
Coelenteramide (Buffer containing CaCl2) Fluorescence intensity (rlu) [3]: 8.8 rlu
Coelenteramide (Buffer containing CaCl2) Maximum fluorescence wavelength λmax (nm) [3]: 523.0 nm
Coelenteramide (EDTA-containing buffer) Fluorescence intensity (rlu) [3]: 9.3 rlu
Coelenteramide (EDTA-containing buffer) Maximum fluorescence wavelength λmax (nm) [3]: 523.5 nm

O=C(Cc1ccc(O)cc1)Nc1ncc(-c2ccc(O)cc2)nc1-c1ccc([N+](=O)[O-])cc1 [Compound 4o, 2-(4-Hydroxyphenyl)-N-[5-(4-hydroxyphenyl)-3-(4-nitrophenyl)pyrazin-2-yl]acetamide]
Fluorescence intensity (apoaequorin [1]): 3.9 rlu
Semi-synthetic BFP (Buffer containing CaCl2) Maximum fluorescence wavelength λmax (nm) (apoaequorin [1]): 477.5 nm
Semi-synthetic gFP (EDTA-containing buffer) Fluorescence intensity (rlu) (apoaequorin [2]): 3.4 rlu
Semi-synthetic gFP (EDTA-containing buffer) Maximum fluorescence wavelength λmax (nm) (apoaequorin [2]): 485.0 nm
Coelenteramide (Buffer containing CaCl2) Fluorescence intensity (rlu) [3]: 2.1 rlu
Coelenteramide (Buffer containing CaCl2) Maximum fluorescence wavelength λmax (nm) [3]: 478.5 nm
Coelenteramide (EDTA-containing buffer) Fluorescence intensity (rlu) [3]: 2.1 rlu
Coelenteramide (EDTA-containing buffer) Maximum fluorescence wavelength λmax (nm) [3]: 482.5 nm

O=C(Cc1ccc(O)cc1)Nc1ncc(-c2ccc(O)cc2)nc1C#Cc1ccccc1 [Compound 4p, 2-(4-Hydroxyphenyl)-N-[5-(4-hydroxyphenyl)-3-(phenylethynyl)pyrazin-2-yl]acetamide]
Fluorescence intensity (apoaequorin [1]): 70.0 rlu
Semi-synthetic BFP (Buffer containing CaCl2) Maximum fluorescence wavelength λmax (nm) (apoaequorin [1]): 548.5 nm
Semi-synthetic gFP (EDTA-containing buffer) Fluorescence intensity (rlu) (apoaequorin [2]): 21.1 rlu
Semi-synthetic gFP (EDTA-containing buffer) Maximum fluorescence wavelength λmax (nm) (apoaequorin [2]): 523.0 nm
Coelenteramide (Buffer containing CaCl2) Fluorescence intensity (rlu) [3]: 5.4 rlu
Coelenteramide (Buffer containing CaCl2) Maximum fluorescence wavelength λmax (nm) [3]: 484.5 nm
Coelenteramide (EDTA-containing buffer) Fluorescence intensity (rlu) [3]: 5.3 rlu
Coelenteramide (EDTA-containing buffer) Maximum fluorescence wavelength λmax (nm) [3]: 476.0 nm

O=C(Cc1ccc(O)cc1)Nc1ncc(-c2ccc(O)cc2)nc1CCc1ccccc1 [Compound 4r, 2-(4-Hydroxyphenyl)-N-[5-(4-hydroxyphenyl)-3-phenethylpyrazin-2-yl]acetamide]
Fluorescence intensity (apoaequorin [1]): 159.9 rlu
Semi-synthetic BFP (Buffer containing CaCl2) Maximum fluorescence wavelength λmax (nm) (apoaequorin [1]): 468.0 nm
Semi-synthetic gFP (EDTA-containing buffer) Fluorescence intensity (rlu) (apoaequorin [2]): 176.4 rlu
Semi-synthetic gFP (EDTA-containing buffer) Maximum fluorescence wavelength λmax (nm) (apoaequorin [2]): 468.0 nm
Coelenteramide (Buffer containing CaCl2) Fluorescence intensity (rlu) [3]: 10.2 rlu
Coelenteramide (Buffer containing CaCl2) Maximum fluorescence wavelength λmax (nm) [3]: 483.0 nm
Coelenteramide (EDTA-containing buffer) Fluorescence intensity (rlu) [3]: 10.3 rlu
Coelenteramide (EDTA-containing buffer) Maximum fluorescence wavelength λmax (nm) [3]: 481.0 nm
